Experimental data as given in ChEMBL document CHEMBL3044646, “Management of tomato leaf mould caused by Cladosporium fulvum with trifloxystrobin” (2007).

Columns and labels:
Format in all cases: functional
[1] = test system: Fulvia fulva; test: Antifungal activity against Passalora fulva infected tomato cultivar Alma F1 plants grown in growth chamber assessed as reduction in lesions on leaf at 20 ug a.i./ml sprayed 96 hr post-inoculation measured after 22 days relative to control; parameters: scale not given: the % may be the effect or the level left
[2] = test system: Fulvia fulva; test: Antifungal activity against Passalora fulva infected tomato cultivar Alma F1 plants grown in growth chamber assessed as reduction in lesions on leaf at 20 ug a.i./ml sprayed 48 hr post-inoculation measured after 22 days relative to control; parameters: scale not given: the % may be the effect or the level left
[3] = test system: Fulvia fulva; test: Antifungal activity against Passalora fulva infected tomato cultivar Alma F1 plants grown in growth chamber assessed as reduction in lesions on leaf at 20 ug a.i./ml sprayed 96 hr prior to inoculation measured after 22 days relative to control; parameters: scale not given: the % may be the effect or the level left
[4] = test system: Fulvia fulva; test: Antifungal activity against Passalora fulva infected tomato cultivar Alma F1 plants grown in growth chamber assessed as reduction in lesions on leaf at 10 ug a.i./ml sprayed 96 hr post-inoculation measured after 22 days relative to control; parameters: scale not given: the % may be the effect or the level left
[5] = test system: Fulvia fulva; test: Antifungal activity against Passalora fulva infected tomato cultivar Alma F1 plants grown in growth chamber assessed as reduction in lesions on leaf at 10 ug a.i./ml sprayed 48 hr prior to inoculation measured after 22 days relative to control; parameters: scale not given: the % may be the effect or the level left
[6] = test system: Fulvia fulva; test: Antifungal activity against Passalora fulva infected tomato cultivar Alma F1 plants grown in growth chamber assessed as reduction in lesions on leaf at 5 ug a.i./ml sprayed 48 hr prior to inoculation measured after 22 days relative to control; parameters: scale not given: the % may be the effect or the level left
[7] = test system: Fulvia fulva; test: Antifungal activity against Passalora fulva infected tomato cultivar Alma F1 plants grown in growth chamber assessed as reduction in lesions on leaf at 10 ug a.i./ml sprayed 24 hr post-inoculation measured after 22 days relative to control; parameters: scale not given: the % may be the effect or the level left
[8] = test system: Fulvia fulva; test: Antifungal activity against Passalora fulva infected tomato cultivar Alma F1 plants grown in growth chamber assessed as reduction in lesions on leaf at 20 ug a.i./ml sprayed 24 hr post-inoculation measured after 22 days relative to control; parameters: scale not given: the % may be the effect or the level left
[9] = test system: Fulvia fulva; test: Antifungal activity against Passalora fulva infected tomato cultivar Alma F1 plants grown in growth chamber assessed as inhibition of sporulation at 5 ug a.i./ml applied at 15 days post-inoculation after appearance of symptoms followed by incubation in growth chamber for 72 hr relative to control
[10] = test system: Fulvia fulva; test: Antifungal activity against Passalora fulva infected tomato cultivar Alma F1 plants grown in growth chamber assessed as reduction in lesions on leaf at 5 ug a.i./ml sprayed 96 hr prior to inoculation measured after 22 days relative to control; parameters: scale not given: the % may be the effect or the level left
[11] = test system: Fulvia fulva; test: Antifungal activity against Passalora fulva infected tomato cultivar Alma F1 plants grown in growth chamber assessed as reduction in lesions on leaf at 5 ug a.i./ml sprayed 24 hr prior to inoculation measured after 22 days relative to control; parameters: scale not given: the % may be the effect or the level left
[12] = test system: Fulvia fulva; test: Antifungal activity against Passalora fulva infected tomato cultivar Alma F1 plants grown in growth chamber assessed as reduction in lesions on leaf at 10 ug a.i./ml sprayed 96 hr prior to inoculation measured after 22 days relative to control; parameters: scale not given: the % may be the effect or the level left
[13] = test system: Fulvia fulva; test: Antifungal activity against Passalora fulva infected tomato cultivar Alma F1 plants grown in growth chamber assessed as reduction in lesions on leaf at 5 ug a.i./ml sprayed 48 hr post-inoculation measured after 22 days relative to control; parameters: scale not given: the % may be the effect or the level left
[14] = test system: Fulvia fulva; test: Antifungal activity against Passalora fulva infected tomato cultivar Alma F1 plants grown in growth chamber assessed as reduction in lesions on leaf at 10 ug a.i./ml sprayed 48 hr post-inoculation measured after 22 days relative to control; parameters: scale not given: the % may be the effect or the level left
[15] = test system: Fulvia fulva; test: Antifungal activity against Passalora fulva infected tomato cultivar Alma F1 plants grown in growth chamber assessed as reduction in lesions on leaf at 20 ug a.i./ml sprayed 24 hr prior to inoculation measured after 22 days relative to control; parameters: scale not given: the % may be the effect or the level left
[16] = test system: Fulvia fulva; test: Antifungal activity against Passalora fulva infected tomato cultivar Alma F1 plants grown in growth chamber assessed as reduction in lesions on leaf at 5 ug a.i./ml sprayed 24 hr post-inoculation measured after 22 days relative to control; parameters: scale not given: the % may be the effect or the level left
[17] = test system: Fulvia fulva; test: Antifungal activity against Passalora fulva infected tomato cultivar Alma F1 plants grown in growth chamber assessed as reduction in lesions on leaf at 5 ug a.i./ml sprayed 96 hr post-inoculation measured after 22 days relative to control; parameters: scale not given: the % may be the effect or the level left
[18] = test system: Fulvia fulva; test: Antifungal activity against Passalora fulva infected tomato cultivar Alma F1 plants grown in growth chamber assessed as reduction in lesions on leaf at 10 ug a.i./ml sprayed 24 hr prior to inoculation measured after 22 days relative to control; parameters: scale not given: the % may be the effect or the level left
[19] = test system: Fulvia fulva; test: Antifungal activity against Passalora fulva infected tomato cultivar Alma F1 plants grown in growth chamber assessed as inhibition of sporulation at 10 ug a.i./ml applied at 15 days post-inoculation after appearance of symptoms followed by incubation in growth chamber for 72 hr relative to control
[20] = test system: Fulvia fulva; test: Antifungal activity against Passalora fulva infected tomato cultivar Alma F1 plants grown in growth chamber assessed as reduction in lesions on leaf at 20 ug a.i./ml sprayed 48 hr prior to inoculation measured after 22 days relative to control; parameters: scale not given: the % may be the effect or the level left
[21] = test system: Fulvia fulva; test: Antifungal activity against Passalora fulva infected tomato cultivar Alma F1 plants grown in growth chamber assessed as inhibition of sporulation at 20 ug a.i./ml applied at 15 days post-inoculation after appearance of symptoms followed by incubation in growth chamber for 72 hr relative to control
[22] = test system: Fulvia fulva; test: Antifungal activity against Passalora fulva infected tomato cultivar Alma F1 plants grown in growth chamber assessed as inhibition of sporulation at 100 ug a.i./ml applied at 15 days post-inoculation after appearance of symptoms followed by incubation in growth chamber for 72 hr relative to control; parameters: scale not given: the % may be the effect or the level left
[23] = test system: Fulvia fulva; test: Antifungal activity against Passalora fulva infected tomato cultivar Alma F1 plants grown in growth chamber assessed as reduction in lesions on leaf at 100 ug a.i./ml sprayed 48 hr post-inoculation measured after 22 days relative to control; parameters: scale not given: the % may be the effect or the level left
[24] = test system: Fulvia fulva; test: Antifungal activity against Passalora fulva infected tomato cultivar Alma F1 plants grown in growth chamber assessed as reduction in lesions on leaf at 100 ug a.i./ml sprayed 96 hr prior to inoculation measured after 22 days relative to control; parameters: scale not given: the % may be the effect or the level left
[25] = test system: Fulvia fulva; test: Antifungal activity against Passalora fulva infected tomato cultivar Alma F1 plants grown in growth chamber assessed as reduction in lesions on leaf at 100 ug a.i./ml sprayed 48 hr prior to inoculation measured after 22 days relative to control; parameters: scale not given: the % may be the effect or the level left
[26] = test system: Fulvia fulva; test: Antifungal activity against Passalora fulva infected tomato cultivar Alma F1 plants grown in growth chamber assessed as reduction in lesions on leaf at 100 ug a.i./ml sprayed 24 hr post-inoculation measured after 22 days relative to control; parameters: scale not given: the % may be the effect or the level left
[27] = test system: Fulvia fulva; test: Antifungal activity against Passalora fulva infected tomato cultivar Alma F1 plants grown in growth chamber assessed as reduction in lesions on leaf at 100 ug a.i./ml sprayed 24 hr prior to inoculation measured after 22 days relative to control; parameters: scale not given: the % may be the effect or the level left
[28] = test system: Fulvia fulva; test: Antifungal activity against Passalora fulva infected tomato cultivar Alma F1 plants grown in growth chamber assessed as reduction in lesions on leaf at 100 ug a.i./ml sprayed 96 hr post-inoculation measured after 22 days relative to control; parameters: scale not given: the % may be the effect or the level left

CO/N=C(\C(=O)OC)c1ccccc1CO/N=C(\C)c1cccc(C(F)(F)F)c1
Activity [1]: 66.7% | Activity [2]: 94.5% | Activity [3]: 94% | Activity [4]: 60.1% | Activity [5]: 90.9% | Activity [6]: 85.3% | Activity [7]: 89% | Activity [8]: 93.3% | inhibition (INH) [9]: 23.2% | Activity [10]: 72.8% | Activity [11]: 88.2% | Activity [12]: 85.3% | Activity [13]: 60.9% | Activity [14]: 76.1% | Activity [15]: 96.5% | Activity [16]: 69.9% | Activity [17]: 45.7% | Activity [18]: 93.9% | inhibition (INH) [19]: 55.7% | Activity [20]: 96.5% | inhibition (INH) [21]: 85.1%

N#Cc1c(Cl)c(Cl)c(Cl)c(C#N)c1Cl [CHLOROTHALONIL]
Activity [22]: 43.2% | Activity [23]: 73.4% | Activity [24]: 84.4% | Activity [25]: 95.2% | Activity [26]: 91% | Activity [27]: 96.5% | Activity [28]: 48.4%
